Source: patent US20250144166A1, “COMPOSITIONS AND METHODS FOR INHIBITING RHO KINASE” (INTERLUDE BIOPHARMA CO., priority 2022, published 2025)
Entries after “also recorded” stand apart in the source; their conditions may differ. Like-named read-outs stand apart in the source and are kept apart here.

Legend:
C2BBe1 cells [1] = assay: TEER in A/R-injured C2BBe1 cells with MLCK and ROCK inhibitors with or without LA; assay type: cell-based, human; conditions: 10 mM LA, 1 μM Y-27632 dihydrochloride, 400 μM Peptide 18; A/R injury; FIG. 7
Description: To evaluate barrier function, the TEER was measured in A/R-injured C2BBe1 cells treated with or without LA.

ZO-1, occludin, F-actin = system: ZO-1, occludin, F-actin
Description: (§1) Specifically, the distribution of tight junction proteins and actin structure was evaluated using western blots on membrane and cytosol fractions and immunofluorescence microscope analysis. Mem-PER Eukaryotic Membrane Protein Extraction Reagent Kit (Thermo Scientific) was used to fractionate membrane and cytosolic compartment. The extracted proteins were blotted with primary antibodies anti-ZO-1 and anti-occludin (Invitrogen). The cold methanol fixed monolayers were stained with primary antibodies (ZO-1 and occludin) and phalloidin (F-actin) for immunofluorescence microscope analysis. The stained monolayers were examined with an Olympus IX83 Inverted Motorized Microscope with cellSens software (Olympus, Tokyo, Japan). pMLC-2/MLC-2 expression was evaluated using western blot analysis with primary antibodies for pMLC-2 and MLC-2 (CST, Danvers, MA).

tight junction proteins = conditions: 10 mM LA
Description: as §1

C2BBe1 cells [2] = conditions: 10 mM LA; regular media; 48 hours
Description: This experiment evaluated the role of LA in proliferation and migration. Specifically, proliferation of non-treated or LA-treated (10 mM) C2BBe1 cells was evaluated by the CCK-8 assay kit (Dojindo Molecular Technologies, Rockville, MD) according to the manufacturer's instructions. 10 mM LA was treated every other day to cells seeded in 96-well culture plates. Viable cells were evaluated with the CCK-8 Assay Kit for five consecutive days. Migration was assessed by seeding C2BBe1 cells in 3 well culture-inserts (ibidi GmbH, Gräfelfing, Germany) and removing the inserts after reaching confluence to create a “wound” in the cell monolayer. 10 mM LA was added to serum-free and regular media to assess migration and proliferation, respectively. Images were captured at 0, 4, 8, 24, and 48 hours with Axio Vert A1 microscope (Carl Zeiss AG, Oberkochen, Germany) and closing of the wound was analyzed by measuring migration distance with ImageJ software.

C2BBe1 = system: C2BBe1
Description: Specifically, monolayers of C2BBe1 were treated with 10 mM LA and were subjected to anoxia for 2 hours followed by reoxygenation with 21% O2 for 1 hour. Next-generation RNA sequencing and biostatistical analyses were employed to assess cellular regulatory pathways.

C2BBe1 cells [3] = conditions: 10 mM LA
Description: For barrier function analysis, TEER was measured in monolayers of C2BBe1 cells treated with or without 10 mM LA. TEER was measured using a Chopstick Electrode Set (WPI, LLC, Sarasota, FL) on the basal and apical sides of a monolayer and attached to an Epithelial Volt Ohm Meter2 (WPI, LLC, Sarasota, FL).

C2BBe1 intestinal cells = conditions: 10 mM LA; A/R injury; compared to non-treated A/R injured cells
Description: Specifically, to evaluate barrier function, transepithelial electrical resistance (TEER) was measured in anoxia/reoxygenation (A/R)-injured C2BBe1 (Caco-2 brush border-expressing Caco-2) cells treated with or without larazotide acetate (LA). Monolayers of C2BBe1 were treated with LA (0.001, 0.1, 1, and 10 mM) and were subjected to anoxia for 2 hours followed by reoxygenation with 21% O2. To generate A/R injury, C2BBe1 cells were placed in a modular incubator chamber (Billups-Rothenberg, San Diego, CA) and flushed with 95% N2/5% CO2 for 5 minutes. The modular chamber was then sealed airtight and placed in an incubator for 2 hours. After 2 hours, the cells were removed from the modular incubator chamber and placed in a 21% O2 normal environment. TEER was measured to assess barrier function during A/R injury and recovery. The TEER was measured using a Chopstick Electrode Set (WPI, LLC, Sarasota, FL) on the basal and apical sides of a monolayer and attached to an Epithelial Volt Ohm Meter2 (WPI, LLC, Sarasota, FL).

[4] = anoxic cells vs. exposed to LA for 3 h
[5] = control vs. exposed to LA for 3 h

## O=S(=O)(c1cccc2cnccc12)N1CCCNCC1 [Fasudil]
C2BBe1 cells [1]
  TEER compared to non-treated A/R injured cells: increased TEER

## larazotide acetate
ZO-1, occludin, F-actin; 10 mM LA, FIG. 4
  F-actin structure during A/R injury: protected
ZO-1, occludin, F-actin; 1-hour reoxygenation, versus non-treated anoxic injured cells
  localization of tight junction and cytoskeleton proteins (ZO-1, occludin, F-actin) by immunofluorescence: revealed well-organized tight junction proteins and F-actin
Tight junction proteins; 1-hour reoxygenation, compared to non-treated anoxic injured cells
  occludin in the membrane fraction (immunoblotting): significantly (p<0.05) increased in the membrane
Tight junction proteins; FIG. 3
  disruption of tight junction proteins during A/R injury: prevented disruption of tight junction proteins
C2BBe1 cells [2]
  wound healing: significantly increased wound healing
C2BBe1; LA-treated cells compared to non-treated cells
  translational processes (GO analysis): significantly increased
C2BBe1; [4]
  Expression compared to control: AMOTL2: Down
  Expression compared to control: EGR1: Down
  Expression compared to control: HES1: Down
  Expression compared to control: HSPH1: Down
  Expression compared to control: JPH2: Up
  Expression compared to control: NDRG1: Up
  Expression compared to control: PFKFB4: Up
  Expression compared to control: SAMD5: Down
  Expression compared to control: SLC2A3: Up
  Expression compared to control: TNS1: Up
C2BBe1; cells treated with LA, FIG. 10
  Ras/Rho GTPase-binding and protein serine/threonine kinase activity (GO analysis): differentially expressed
C2BBe1; [5]
  Expression compared to control: CEBPB: Up
  Expression compared to control: DDIT4: Up
  Expression compared to control: EGR1: Up
  Expression compared to control: H1F0: Up
  Expression compared to control: ID2: Up
  Expression compared to control: IGFBP4: Down
  Expression compared to control: ITGA2: Down
  Expression compared to control: MAT2A: Down
  Expression compared to control: SAMD5: Down
  Expression compared to control: SYTL2: Down
C2BBe1 cells [3]; compared to non-treated A/R injured cells at 1 hour after treatment (FIG. 12 legend)
  TEER: significantly increased TEER
C2BBe1 cells [3]; normal conditions, FIG. 12
  TEER: increased TEER
C2BBe1 intestinal cells
  TEER: significantly (p<0.001) increases the TEER; also recorded: significantly increased (p<0.001)
